Test results published in ChEMBL document CHEMBL5678818, “Discovery of potent SOS1 inhibitors that block RAS activation via disruption of the RAS-SOS1 interaction” (Proc Natl Acad Sci U S A, 2019).

Key:
[1] = target: Serine/threonine-protein kinase MRCK alpha (Homo sapiens) (UniProt Q5VT25); experiment: Inhibition of MRCKA (unknown origin) assessed as residual activity at 1000 nM by KINOMEscan analysis relative to control
[2] = tested on: Epidermal growth factor receptor (Homo sapiens), P00533 [UNDEFINED MUTATION]; experiment: Inhibition of EGFR L747-E749del/A750P mutant (unknown origin) assessed as residual activity at 1000 nM by KINOMEscan analysis relative to control
[3] = tested on: Hepatocyte growth factor receptor (Homo sapiens), P08581 [M1250T]; experiment: Inhibition of MET M1250T mutant (unknown origin) assessed as residual activity at 1000 nM by KINOMEscan analysis relative to control
[4] = target: T1, Protein kinase C epsilon type (Homo sapiens) (UniProt Q02156); experiment: Inhibition of PRKCE (unknown origin) assessed as residual activity at 1000 nM by KINOMEscan analysis relative to control
T1 sequence (whole entry): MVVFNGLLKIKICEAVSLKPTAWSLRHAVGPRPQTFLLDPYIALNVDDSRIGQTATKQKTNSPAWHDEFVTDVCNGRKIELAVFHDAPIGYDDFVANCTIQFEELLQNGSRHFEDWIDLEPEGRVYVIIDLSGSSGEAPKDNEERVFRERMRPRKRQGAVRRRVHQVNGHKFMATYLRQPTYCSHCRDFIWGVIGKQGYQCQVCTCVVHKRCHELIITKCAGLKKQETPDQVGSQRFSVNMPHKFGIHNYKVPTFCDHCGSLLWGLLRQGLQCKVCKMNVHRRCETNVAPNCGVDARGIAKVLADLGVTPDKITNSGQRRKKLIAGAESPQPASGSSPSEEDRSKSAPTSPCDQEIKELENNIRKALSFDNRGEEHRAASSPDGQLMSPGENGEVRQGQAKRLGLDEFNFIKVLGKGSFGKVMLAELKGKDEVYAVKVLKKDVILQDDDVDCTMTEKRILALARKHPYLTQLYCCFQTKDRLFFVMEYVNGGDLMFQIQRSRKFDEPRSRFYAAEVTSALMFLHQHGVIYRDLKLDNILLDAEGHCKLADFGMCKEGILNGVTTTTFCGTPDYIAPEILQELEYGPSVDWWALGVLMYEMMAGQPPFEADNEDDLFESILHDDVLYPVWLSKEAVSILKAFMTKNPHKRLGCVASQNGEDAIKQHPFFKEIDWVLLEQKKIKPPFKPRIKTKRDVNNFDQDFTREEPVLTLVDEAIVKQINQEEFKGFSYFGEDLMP

[5] = target: Non-receptor tyrosine-protein kinase TYK2 (Homo sapiens) (UniProt P29597); experiment: Inhibition of TYK2 JH1 catalytic domain (unknown origin) assessed as residual activity at 1000 nM by KINOMEscan analysis relative to control
[6] = target: T2, Mitogen-activated protein kinase kinase kinase 13 (Homo sapiens) (UniProt O43283); experiment: Inhibition of LZK (unknown origin) assessed as residual activity at 1000 nM by KINOMEscan analysis relative to control
T2 sequence (whole entry): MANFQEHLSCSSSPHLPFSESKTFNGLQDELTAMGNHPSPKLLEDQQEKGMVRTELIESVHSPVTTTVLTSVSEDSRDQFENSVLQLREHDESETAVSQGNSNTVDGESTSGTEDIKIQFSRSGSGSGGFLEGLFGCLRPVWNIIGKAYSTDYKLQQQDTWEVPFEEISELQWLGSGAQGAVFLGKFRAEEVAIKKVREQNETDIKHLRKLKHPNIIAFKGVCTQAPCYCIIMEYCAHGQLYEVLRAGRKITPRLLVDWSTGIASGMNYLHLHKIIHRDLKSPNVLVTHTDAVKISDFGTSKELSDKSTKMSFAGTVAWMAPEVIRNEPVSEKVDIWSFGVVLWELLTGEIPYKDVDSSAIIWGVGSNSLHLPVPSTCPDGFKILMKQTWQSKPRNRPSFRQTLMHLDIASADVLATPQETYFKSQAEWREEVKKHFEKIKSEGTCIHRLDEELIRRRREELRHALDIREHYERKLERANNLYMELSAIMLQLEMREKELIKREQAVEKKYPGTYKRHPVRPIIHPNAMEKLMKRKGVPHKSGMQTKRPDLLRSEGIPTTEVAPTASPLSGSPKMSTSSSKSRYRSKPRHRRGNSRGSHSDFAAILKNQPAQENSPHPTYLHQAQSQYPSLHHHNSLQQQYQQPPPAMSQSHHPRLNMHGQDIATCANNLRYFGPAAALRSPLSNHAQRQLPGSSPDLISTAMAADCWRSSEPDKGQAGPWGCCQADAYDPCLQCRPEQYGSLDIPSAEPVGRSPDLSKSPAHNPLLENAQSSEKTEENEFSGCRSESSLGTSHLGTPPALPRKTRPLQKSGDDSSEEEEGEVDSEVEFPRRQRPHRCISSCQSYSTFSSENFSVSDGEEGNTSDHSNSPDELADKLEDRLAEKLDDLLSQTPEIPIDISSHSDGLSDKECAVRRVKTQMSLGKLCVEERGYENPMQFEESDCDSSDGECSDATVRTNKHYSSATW

[7] = target: Mitogen-activated protein kinase kinase kinase 14 (Homo sapiens) (UniProt Q99558); experiment: Inhibition of NIK (unknown origin) assessed as residual activity at 1000 nM by KINOMEscan analysis relative to control
Chain of Mitogen-activated protein kinase kinase kinase 14 (Homo sapiens) (Q99558 whole entry, looked up): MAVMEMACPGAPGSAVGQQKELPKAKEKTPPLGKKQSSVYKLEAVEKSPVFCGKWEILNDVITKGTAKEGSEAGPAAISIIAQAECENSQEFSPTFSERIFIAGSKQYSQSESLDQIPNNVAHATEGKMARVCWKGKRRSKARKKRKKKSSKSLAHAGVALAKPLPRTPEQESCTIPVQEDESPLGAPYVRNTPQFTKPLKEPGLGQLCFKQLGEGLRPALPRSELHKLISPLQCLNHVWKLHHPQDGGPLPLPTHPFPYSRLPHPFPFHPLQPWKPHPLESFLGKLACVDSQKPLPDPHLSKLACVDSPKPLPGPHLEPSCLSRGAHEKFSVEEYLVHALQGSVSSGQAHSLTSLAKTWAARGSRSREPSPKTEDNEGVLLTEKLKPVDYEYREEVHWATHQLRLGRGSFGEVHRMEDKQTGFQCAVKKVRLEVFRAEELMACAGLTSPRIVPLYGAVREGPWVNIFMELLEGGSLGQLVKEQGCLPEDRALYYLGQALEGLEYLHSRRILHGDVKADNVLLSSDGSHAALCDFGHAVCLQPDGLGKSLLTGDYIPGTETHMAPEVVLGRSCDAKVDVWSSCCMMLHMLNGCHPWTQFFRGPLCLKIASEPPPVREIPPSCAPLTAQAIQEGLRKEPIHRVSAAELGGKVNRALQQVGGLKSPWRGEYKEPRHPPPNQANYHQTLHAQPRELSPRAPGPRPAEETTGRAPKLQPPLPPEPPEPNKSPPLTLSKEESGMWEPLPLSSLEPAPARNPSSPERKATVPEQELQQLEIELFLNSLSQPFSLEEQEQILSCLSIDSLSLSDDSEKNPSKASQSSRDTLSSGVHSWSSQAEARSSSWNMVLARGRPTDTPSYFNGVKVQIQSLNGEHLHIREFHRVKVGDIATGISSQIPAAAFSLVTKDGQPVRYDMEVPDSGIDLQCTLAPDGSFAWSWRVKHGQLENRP

Chain of Epidermal growth factor receptor (Homo sapiens), P00533 [UNDEFINED MUTATION] (P00533 whole entry, looked up, stated change not applied): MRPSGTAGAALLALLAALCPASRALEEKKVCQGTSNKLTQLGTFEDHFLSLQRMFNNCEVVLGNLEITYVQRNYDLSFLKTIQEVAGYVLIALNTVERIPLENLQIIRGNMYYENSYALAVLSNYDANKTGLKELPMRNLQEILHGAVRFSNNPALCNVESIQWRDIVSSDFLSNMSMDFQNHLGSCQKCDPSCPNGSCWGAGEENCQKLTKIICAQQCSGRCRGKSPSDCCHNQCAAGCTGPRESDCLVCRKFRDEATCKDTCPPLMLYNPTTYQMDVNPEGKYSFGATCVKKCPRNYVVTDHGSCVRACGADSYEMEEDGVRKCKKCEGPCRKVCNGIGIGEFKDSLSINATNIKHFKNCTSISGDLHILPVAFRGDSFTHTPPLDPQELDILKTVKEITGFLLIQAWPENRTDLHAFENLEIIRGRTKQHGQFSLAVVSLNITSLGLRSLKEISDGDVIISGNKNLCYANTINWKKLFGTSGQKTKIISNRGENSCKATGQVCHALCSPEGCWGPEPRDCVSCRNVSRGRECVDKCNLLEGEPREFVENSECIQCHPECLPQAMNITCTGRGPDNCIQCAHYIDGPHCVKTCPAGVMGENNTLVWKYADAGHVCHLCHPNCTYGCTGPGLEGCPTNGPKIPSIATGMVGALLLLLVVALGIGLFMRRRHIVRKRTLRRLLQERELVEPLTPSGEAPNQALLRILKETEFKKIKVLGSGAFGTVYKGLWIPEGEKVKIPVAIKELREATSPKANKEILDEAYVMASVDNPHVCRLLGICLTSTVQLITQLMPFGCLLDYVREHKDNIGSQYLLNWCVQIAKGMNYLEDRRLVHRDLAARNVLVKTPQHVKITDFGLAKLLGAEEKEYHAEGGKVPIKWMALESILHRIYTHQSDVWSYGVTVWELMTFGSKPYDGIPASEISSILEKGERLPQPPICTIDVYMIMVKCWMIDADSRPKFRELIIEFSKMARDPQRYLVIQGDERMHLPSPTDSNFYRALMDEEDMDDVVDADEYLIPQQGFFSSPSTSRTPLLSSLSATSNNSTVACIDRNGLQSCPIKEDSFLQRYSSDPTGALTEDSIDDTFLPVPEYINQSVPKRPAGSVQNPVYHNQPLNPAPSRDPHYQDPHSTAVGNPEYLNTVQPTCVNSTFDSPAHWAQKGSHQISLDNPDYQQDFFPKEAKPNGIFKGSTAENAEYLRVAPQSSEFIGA
Chain of Serine/threonine-protein kinase MRCK alpha (Homo sapiens) (Q5VT25 whole entry): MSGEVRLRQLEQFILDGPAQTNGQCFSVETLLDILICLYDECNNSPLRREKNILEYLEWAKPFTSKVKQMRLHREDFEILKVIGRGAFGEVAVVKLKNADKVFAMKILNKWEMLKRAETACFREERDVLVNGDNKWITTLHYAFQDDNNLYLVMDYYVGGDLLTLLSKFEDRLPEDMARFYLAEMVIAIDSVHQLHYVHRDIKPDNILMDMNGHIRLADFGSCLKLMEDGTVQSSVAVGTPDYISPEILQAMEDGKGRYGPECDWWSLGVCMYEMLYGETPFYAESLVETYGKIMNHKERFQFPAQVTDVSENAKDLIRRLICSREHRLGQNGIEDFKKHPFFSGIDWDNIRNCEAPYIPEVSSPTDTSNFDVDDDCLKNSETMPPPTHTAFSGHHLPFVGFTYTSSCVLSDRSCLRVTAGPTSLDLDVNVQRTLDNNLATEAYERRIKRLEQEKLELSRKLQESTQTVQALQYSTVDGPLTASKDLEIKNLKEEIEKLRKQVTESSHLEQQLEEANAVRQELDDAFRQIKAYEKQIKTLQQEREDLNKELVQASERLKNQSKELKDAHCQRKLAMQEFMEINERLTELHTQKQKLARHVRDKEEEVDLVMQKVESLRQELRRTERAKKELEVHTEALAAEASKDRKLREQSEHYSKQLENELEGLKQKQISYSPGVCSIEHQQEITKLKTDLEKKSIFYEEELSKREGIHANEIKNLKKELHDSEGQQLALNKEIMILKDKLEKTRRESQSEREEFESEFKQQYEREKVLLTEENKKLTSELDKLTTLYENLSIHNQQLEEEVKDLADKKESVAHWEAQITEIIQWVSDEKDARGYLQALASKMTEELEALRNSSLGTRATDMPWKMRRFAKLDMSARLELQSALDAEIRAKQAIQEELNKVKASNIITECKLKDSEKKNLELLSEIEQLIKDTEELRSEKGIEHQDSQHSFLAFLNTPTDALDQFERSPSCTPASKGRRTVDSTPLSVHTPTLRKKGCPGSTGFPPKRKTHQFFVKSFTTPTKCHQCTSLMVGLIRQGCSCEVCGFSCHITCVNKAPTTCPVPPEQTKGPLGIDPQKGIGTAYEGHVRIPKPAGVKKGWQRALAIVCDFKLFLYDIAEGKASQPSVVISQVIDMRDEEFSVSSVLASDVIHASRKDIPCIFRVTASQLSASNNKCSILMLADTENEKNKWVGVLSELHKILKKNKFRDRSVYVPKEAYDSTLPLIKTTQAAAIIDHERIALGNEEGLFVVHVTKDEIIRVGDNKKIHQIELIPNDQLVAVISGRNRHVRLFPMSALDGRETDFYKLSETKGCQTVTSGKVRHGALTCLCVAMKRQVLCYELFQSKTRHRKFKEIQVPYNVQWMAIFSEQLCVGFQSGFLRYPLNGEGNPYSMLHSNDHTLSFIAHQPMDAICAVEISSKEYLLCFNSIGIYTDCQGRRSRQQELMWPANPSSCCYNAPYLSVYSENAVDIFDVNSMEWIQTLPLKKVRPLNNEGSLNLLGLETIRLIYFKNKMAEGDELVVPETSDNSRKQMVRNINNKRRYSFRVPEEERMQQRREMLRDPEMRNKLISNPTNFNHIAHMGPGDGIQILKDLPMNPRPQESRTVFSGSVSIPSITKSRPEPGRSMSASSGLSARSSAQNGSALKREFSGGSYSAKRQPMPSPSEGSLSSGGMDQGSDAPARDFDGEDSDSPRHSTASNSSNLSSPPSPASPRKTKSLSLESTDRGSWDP
Chain of Non-receptor tyrosine-protein kinase TYK2 (Homo sapiens) (P29597 whole entry, the tested form may be a part): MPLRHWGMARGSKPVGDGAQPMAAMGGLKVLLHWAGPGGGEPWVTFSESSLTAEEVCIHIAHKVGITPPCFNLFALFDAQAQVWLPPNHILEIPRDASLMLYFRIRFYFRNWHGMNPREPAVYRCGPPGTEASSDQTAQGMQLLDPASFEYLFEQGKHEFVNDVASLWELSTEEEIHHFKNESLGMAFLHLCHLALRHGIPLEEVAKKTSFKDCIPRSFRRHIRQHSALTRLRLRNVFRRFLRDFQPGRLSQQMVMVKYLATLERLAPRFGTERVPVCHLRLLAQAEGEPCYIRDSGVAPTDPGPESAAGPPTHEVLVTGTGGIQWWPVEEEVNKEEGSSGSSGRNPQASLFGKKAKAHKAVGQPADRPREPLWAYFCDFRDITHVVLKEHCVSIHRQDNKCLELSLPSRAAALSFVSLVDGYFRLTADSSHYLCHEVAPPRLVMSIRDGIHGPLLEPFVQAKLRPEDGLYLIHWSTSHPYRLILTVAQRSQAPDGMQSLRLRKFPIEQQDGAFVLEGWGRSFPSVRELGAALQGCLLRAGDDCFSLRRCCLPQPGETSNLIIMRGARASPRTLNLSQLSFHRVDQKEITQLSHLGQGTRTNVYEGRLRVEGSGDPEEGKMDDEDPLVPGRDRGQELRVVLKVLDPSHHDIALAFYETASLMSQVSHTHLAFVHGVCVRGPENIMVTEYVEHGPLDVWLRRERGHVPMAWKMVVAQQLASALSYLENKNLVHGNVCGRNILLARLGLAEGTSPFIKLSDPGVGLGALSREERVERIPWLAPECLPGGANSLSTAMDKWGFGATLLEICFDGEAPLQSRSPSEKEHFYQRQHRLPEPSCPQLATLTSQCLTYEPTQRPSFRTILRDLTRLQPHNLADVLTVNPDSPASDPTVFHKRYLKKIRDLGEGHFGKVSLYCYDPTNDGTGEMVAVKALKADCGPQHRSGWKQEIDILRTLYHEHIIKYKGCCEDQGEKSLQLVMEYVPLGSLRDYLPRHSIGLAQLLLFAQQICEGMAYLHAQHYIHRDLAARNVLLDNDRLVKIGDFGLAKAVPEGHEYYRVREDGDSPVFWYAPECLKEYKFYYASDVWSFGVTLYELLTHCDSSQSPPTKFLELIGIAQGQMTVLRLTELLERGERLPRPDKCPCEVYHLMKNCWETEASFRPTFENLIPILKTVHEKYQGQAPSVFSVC

## COc1cc2nc(C)nc(N[C@H](C)c3cccc(-c4cn[nH]c4)c3)c2cc1OC
[1]
  Activity: 94%
[2]
  Activity: 99%
[3]
  Activity: 100%
[4]
  Activity: 80%
[5]
  Activity: 77%
[6]
  Activity: 94%
[7]
  Activity: 88%

## COc1cc2ncnc(N[C@H](C)c3cccc4ccccc34)c2cc1OC
[1]
  Activity: 100%
[2]
  Activity: 3.2%
[3]
  Activity: 98%
[4]
  Activity: 95%
[5]
  Activity: 82%
[6]
  Activity: 99%
[7]
  Activity: 91%
